Each structure is given as a SMILES string. Activity calls are given as the source filed them. The rule behind the calls is not given here.

The series has as its system CCRIS mutagenicity, Ames/micronucleus/aberration tests. Nature of the series: CCRIS mutagenicity studies.
The mark [1] stands for this setting: Test System: AMES SALMONELLA TYPHIMURIUM, Strain/Indicator: TA98, Metabolic Activation: NONE, Method: PREINCUBATION
The mark [2] stands for this setting: Test System: AMES SALMONELLA TYPHIMURIUM, Strain/Indicator: TA100, Metabolic Activation: NONE, Method: PREINCUBATION
Where [3] appears, read: Test System: AMES SALMONELLA TYPHIMURIUM, Strain/Indicator: TA100, Metabolic Activation: NONE, Method: STANDARD PLATE.
[4] abbreviates: Test System: AMES SALMONELLA TYPHIMURIUM, Strain/Indicator: TA98, Metabolic Activation: NONE, Method: STANDARD PLATE.
Where [5] appears, read: Test System: AMES SALMONELLA TYPHIMURIUM, Strain/Indicator: TA1535, Metabolic Activation: NONE, Method: STANDARD PLATE.
[6] abbreviates: Test System: AMES SALMONELLA TYPHIMURIUM, Strain/Indicator: TA1537, Metabolic Activation: NONE, Method: STANDARD PLATE.

Turning to `O=c1c(O[C@@H]2O[C@H](CO)[C@H](O)[C@H](O)[C@H]2O)c(-c2ccc(O)c(O)c2)oc2cc(O)cc(O)c12`, the mutagenic call is “inactive; negative” (Test System: Ames Salmonella typhimurium, Strain/Indicator: TA98, Metabolic Activation: None, Method: Standard plate) and “inactive; negative” (Test System: Ames Salmonella typhimurium, Strain/Indicator: TA98, Metabolic Activation: Rat, Liver, S-9, Aroclor 1254, Method: Standard plate).
Take `Nc1ccc(O)c(C(=O)O)c1`: the mutagenic call is, setting by setting: under setting [1], “inactive; negative”; (Test System: AMES SALMONELLA TYPHIMURIUM, Strain/Indicator: TA98, Metabolic Activation: S-9, Method: PREINCUBATION) “inactive; negative”; under setting [2], “inactive; negative”; (Test System: AMES SALMONELLA TYPHIMURIUM, Strain/Indicator: TA100, Metabolic Activation: S-9, Method: PREINCUBATION) “inactive; negative”; (Test System: AMES SALMONELLA TYPHIMURIUM, Strain/Indicator: TA1535, Metabolic Activation: NONE, Method: PREINCUBATION) “inactive; negative”; (Test System: AMES SALMONELLA TYPHIMURIUM, Strain/Indicator: TA1535, Metabolic Activation: S-9, Method: PREINCUBATION) “inactive; negative”. The mutagenic call by setting is: (Test System: AMES SALMONELLA TYPHIMURIUM, Strain/Indicator: TA1537, Metabolic Activation: NONE, Method: PREINCUBATION) “inactive; negative”; (Test System: AMES SALMONELLA TYPHIMURIUM, Strain/Indicator: TA1537, Metabolic Activation: S-9, Method: PREINCUBATION) “inactive; negative”; (Test System: E. COLI, Strain/Indicator: WP2 UVRA, Metabolic Activation: NONE, Method: PREINCUBATION) “inactive; negative”; (Test System: E. COLI, Strain/Indicator: WP2 UVRA, Metabolic Activation: S-9, Method: PREINCUBATION) “inactive; negative”.
For the molecule `O.O.O.[Fe].[Fe]`, the mutagenic call reads like this: (Test System: AMES SALMONELLA TYPHIMURIUM, Strain/Indicator: TA97, Metabolic Activation: NONE, Method: PREINCUBATION) “inactive; negative”; (Test System: AMES SALMONELLA TYPHIMURIUM, Strain/Indicator: TA97, Metabolic Activation: RAT, LIVER, S-9, AROCLOR 1254, Method: PREINCUBATION) “inactive; negative”; (Test System: AMES SALMONELLA TYPHIMURIUM, Strain/Indicator: TA102, Metabolic Activation: NONE, Method: PREINCUBATION) “inactive; negative”; (Test System: AMES SALMONELLA TYPHIMURIUM, Strain/Indicator: TA102, Metabolic Activation: RAT, LIVER, S-9, AROCLOR 1254, Method: PREINCUBATION) “inactive; negative”.
Take `Cc1ccc(S(=O)(=O)OC[C@@H]2CO2)cc1`: the mutagenic call is “active; positive” under setting [2]; “active; positive” under setting [3]; “active; positive” (Test System: AMES SALMONELLA TYPHIMURIUM, Strain/Indicator: TA100, Metabolic Activation: RAT, LIVER, S-9, PCB, Method: PREINCUBATION).
In the case of `CC12OOC1(CO)Oc1ccccc12` (stereo not drawn), under setting [2], the mutagenic call was “inactive; negative”.
In the case of `C[C@]12C=CC(=O)C=C1CC[C@@H]1[C@@H]2C(=O)C[C@@]2(C)[C@H]1CC[C@]2(O)C(=O)CO`, the mutagenic call by setting is: (Test System: AMES SALMONELLA TYPHIMURIUM, Strain/Indicator: TA98, Metabolic Activation: HAMSTER, LIVER, S-9, AROCLOR 1254 (10%), Method: STANDARD PLATE) “inactive; negative”; under setting [4], “inactive; negative”; (Test System: AMES SALMONELLA TYPHIMURIUM, Strain/Indicator: TA98, Metabolic Activation: RAT, LIVER, S-9, AROCLOR 1254 (10%), Method: STANDARD PLATE) “inactive; negative”; (Test System: AMES SALMONELLA TYPHIMURIUM, Strain/Indicator: TA100, Metabolic Activation: HAMSTER, LIVER, S-9, AROCLOR 1254 (10%), Method: STANDARD PLATE) “inactive; negative”; under setting [3], “inactive; negative”; (Test System: AMES SALMONELLA TYPHIMURIUM, Strain/Indicator: TA100, Metabolic Activation: RAT, LIVER, S-9, AROCLOR 1254 (10%), Method: STANDARD PLATE) “inactive; negative”. In addition, the mutagenic call is “inactive; negative” (Test System: AMES SALMONELLA TYPHIMURIUM, Strain/Indicator: TA1535, Metabolic Activation: HAMSTER, LIVER, S-9, AROCLOR 1254 (10%), Method: STANDARD PLATE); “inactive; negative” under setting [5]; “inactive; negative” (Test System: AMES SALMONELLA TYPHIMURIUM, Strain/Indicator: TA1535, Metabolic Activation: RAT, LIVER, S-9, AROCLOR 1254 (10%), Method: STANDARD PLATE); “inactive; negative” (Test System: AMES SALMONELLA TYPHIMURIUM, Strain/Indicator: TA1537, Metabolic Activation: HAMSTER, LIVER, S-9, AROCLOR 1254 (10%), Method: STANDARD PLATE); “inactive; negative” under setting [6]; “inactive; negative” (Test System: AMES SALMONELLA TYPHIMURIUM, Strain/Indicator: TA1537, Metabolic Activation: RAT, LIVER, S-9, AROCLOR 1254 (10%), Method: STANDARD PLATE). Besides, the mutagenic call is “inactive; negative” (Test System: AMES SALMONELLA TYPHIMURIUM, Strain/Indicator: TA1538, Metabolic Activation: HAMSTER, LIVER, S-9, AROCLOR 1254 (10%), Method: STANDARD PLATE); “inactive; negative” (Test System: AMES SALMONELLA TYPHIMURIUM, Strain/Indicator: TA1538, Metabolic Activation: NONE, Method: STANDARD PLATE); “inactive; negative” (Test System: AMES SALMONELLA TYPHIMURIUM, Strain/Indicator: TA1538, Metabolic Activation: RAT, LIVER, S-9, AROCLOR 1254 (10%), Method: STANDARD PLATE); “inactive; negative. reevaluation of results: negative” (Test System: MOUSE LYMPHOMA, Strain/Indicator: L5178Y (TK+/TK-), Metabolic Activation: NONE, Method: SUSPENSION/PLATE); “inactive; negative. reevaluation of results: inconclusive” (Test System: MOUSE LYMPHOMA, Strain/Indicator: L5178Y (TK+/TK-), Metabolic Activation: RAT, LIVER, S-9, AROCLOR 1254, Method: SUSPENSION/PLATE).
Turning to `CCCCCC(=O)Cc1cc(O)cc2c1C(=O)Oc1cc(O)c(C(=O)O)c(CCCCC)c1O2`, the mutagenic call under setting [1] was “inactive; negative”; the mutagenic call under setting [4] is “inactive; negative”; the mutagenic call (Test System: AMES SALMONELLA TYPHIMURIUM, Strain/Indicator: TA98, Metabolic Activation: RAT, LIVER, S-9, Method: PREINCUBATION) was “inactive; negative”; the mutagenic call (Test System: AMES SALMONELLA TYPHIMURIUM, Strain/Indicator: TA98, Metabolic Activation: RAT, LIVER, S-9, Method: STANDARD PLATE) was “inactive; negative”; the mutagenic call under setting [2] was “inactive; negative”; the mutagenic call under setting [3] is “inactive; negative”. In addition, the mutagenic call by setting is: (Test System: AMES SALMONELLA TYPHIMURIUM, Strain/Indicator: TA100, Metabolic Activation: RAT, LIVER, S-9, Method: PREINCUBATION) “inactive; negative”; (Test System: AMES SALMONELLA TYPHIMURIUM, Strain/Indicator: TA100, Metabolic Activation: RAT, LIVER, S-9, Method: STANDARD PLATE) “inactive; negative”.
As to `CCOc1ccccc1OCC1CNCCO1` (stereo not drawn), the mutagenic call runs as follows: under setting [4], “inactive; negative”; (Test System: AMES SALMONELLA TYPHIMURIUM, Strain/Indicator: TA98, Metabolic Activation: RAT, LIVER, S-9, AROCLOR 1254, Method: STANDARD PLATE) “inactive; negative”; under setting [3], “inactive; negative”; (Test System: AMES SALMONELLA TYPHIMURIUM, Strain/Indicator: TA100, Metabolic Activation: RAT, LIVER, S-9, AROCLOR 1254, Method: STANDARD PLATE) “inactive; negative”; under setting [5], “inactive; negative”; (Test System: AMES SALMONELLA TYPHIMURIUM, Strain/Indicator: TA1535, Metabolic Activation: RAT, LIVER, S-9, AROCLOR 1254, Method: STANDARD PLATE) “inactive; negative”. In addition, the mutagenic call was “inactive; negative” under setting [6] and “inactive; negative” (Test System: AMES SALMONELLA TYPHIMURIUM, Strain/Indicator: TA1537, Metabolic Activation: RAT, LIVER, S-9, AROCLOR 1254, Method: STANDARD PLATE).

The record behind these values is PubChem BioAssay AID1259407 (Chemical Carcinogenesis Research Information System (CCRIS), 2018).
